Source: patent publication US20030124571A1, “Novel human septin and uses therefor” (The Government of the United States of America, priority 2000, published 2003)

Experiments:
NRP-154 cells [1] = test: Apoptosis / cell death (DNA laddering, morphology), NRP-154 cells; format: cell-based, rat; conditions: 24 hours; okadaic acid 30 nM, staurosporine 2 nM
Method: (§1) 2×10^5 M-NRP1 cells or NRP-154 cells were plated in 6-well dishes. After 24 hours, 2 ml DMEM/F12 containing 15 mM HEPES, 1% calf serum, and 0.1 μM dexamethasone were added to the plates. The cells were cultured at 37° C. for 24 hours and then detached by trypsinization.
(§2) Internucleosomal DNA ladders were detected with a modification (described below) of TACS apoptotic DNA ladder kit (Trevigen, Githersburg, Md.). Briefly, the detached cells were centrifuged at 600×g to form cell pellets. The cell pellets were then resuspended in 25 μl PBS and lysed by the addition of 25 μl of lysis buffer. DNA was purified from the mixture as directed by Trevigen.
The nicked ends of the DNA were ^32P-labeled by incubating 1 μg of DNA with 2.5 units of Klenow fragment of DNA Poll in the presence of 0.5 μCi of (α-^32P) dCTP (3 Ci/mmol, Dupont NEN, Boston, Mass.) for 30 min at room temperature in a 10 μl reaction volume containing 5 mM MgCl2 and 10 mM Tris-HCl (pH 7.5). One third of the labeled DNA was electrophoresed through 1.8% agarose-1×TAE at 70 V for 2 hours. […]
(§3) NRP-154 and M-NRP1 cells were treated with a control (i.e., the identical solution without the agent of interest) or with 10 ng/ml TGF-β, okadaic acid (30 nM) or staurosporine (2 nM) for 24 hours. Apoptosis was determined by DNA laddering, essentially as described in Example VA, above.

M-NRP1 cells [2] = test: Apoptosis (DNA laddering, morphology), M-NRP1 cells; format: cell-based, rat; conditions: 24 hours; 10 ng/ml TGF-β, okadaic acid 30 nM, staurosporine 2 nM
Method: as §1, §2
The nicked ends of the DNA were ^32P-labeled by incubating 1 μg of DNA with 2.5 units of Klenow fragment of DNA Poll in the presence of 0.5 μCi of (α-^32P) dCTP (3 Ci/mmol, Dupont NEN, Boston, Mass.) for 30 min at room temperature in a 10 μl reaction volume containing 5 mM MgCl2 and 10 mM Tris-HCl (pH 7.5). One third of the labeled DNA was electrophoresed through 1.8% agarose-1×TAE at 70 V for 2 hours. Gels were dried and exposed to X-Omat AR (Kodak, Rochester, N.Y.) for about 1 hour.
Staurosporine and okadaic acid (Upstate Biotechnology Incorporated, Lake Placid, N.Y.) were dissolved in dimethyl sulfoxide (DMSO) and diluted to a final concentration of 2 nM and […], respectively, in 0.01% DMSO.
as §3

NRP-154 cells [3] = test: TUNEL assay, NRP-154 cells; format: cell-based, rat; conditions: 10 ng/ml TGF-β, 24 hours
Method: (§4) TUNEL assays were performed using the TACS In Situ Apoptosis Detection Kit (Trevigen). Briefly, NRP-154 and M-NRP1 cells were plated at 8×10^4 cells/ml in a 96 well plate and allowed to attach overnight. Cells were then treated with either 10 ng/ml TGF-β (R&D Systems, Inc., Minneapolis, Minn.), or control (i.e., the identical solution without TGF-β) for 24 hours, fixed with formaldehyde and analyzed for stained nuclei according to the manufacturer's instructions.

M-NRP1 cells [4] = test: Thymidine incorporation assay, M-NRP1 cells; format: cell-based, rat; conditions: 24 hr treatment with 10 ng/ml TGF-β1
Method: (§5) M-NRP1 and NRP-154 cells were plated at 1×10^5 cells per well in 24 well plates and allowed to attach overnight. Incorporation of (^3H)-thymidine was measured by adding radioactivity for 3 hours, 24 hours after addition of control or 10 ng/ml TGF-β1. Plates were counted on a Packard Top Count. Parallel plates (e.g., those treated in an identical manner) were harvested by trypinization for counting in a Coulter Counter.

NRP-154 cells [5] = conditions: 48-72 hours exposure to 10 ng/ml TGF-β; cited from earlier work
[6] = tested on: caspase 3 in NRP-154 cells; test: Caspase 3 fluorescent activity assay, NRP-154 cells; format: cell-based, rat; conditions: 10 ng/ml TGF-β 24 hours
Method: Cells were seeded to 50% confluence in six-well plates in media containing 10% fetal calf serum overnight. Following 24 hours after transfection, cells media was changed to contain 1% fetal calf serum with or without 10 ng/ml TGF-β for additional 24 hours. Cells were treated with caspase 3 aldehyde inhibitor (Ac-DEVD-CHO) supplied with caspase 3 fluorescent activity kit according to the manufacturers' protocols (Pharmingen, San-Diego, Calif.). Results were read using FL-600 microplate fluorescence reader (Bio-Tek).

COS cells = test: TUNEL assay of transfected COS cells; format: cell-based, monkey; conditions: COS cells transfected with control vector, 10 ng/ml TGF-β for 24 hours
Method: COS cells were cultured as previously described (Section E, above). […] When these cells are transfected with ARTS and treatment with TGF-β they are induced to cell death.
COS cells were then transfected with control vector or wildtype ARTS, essentially as described above, and treated with 10 ng/ml TGF-β for 24 hours.
The apoptotic response of COS cells to TGF-β was assessed by a TUNEL assay ([…], now Roche, Indianapolis, Ind.) following the manufacturer's instructions.
COS cells were cultured and transfected, as described above, with equal concentrations of either pcDNA3 control vector, ARTS or M-ARTS-pcDNA3 using the Lipofectamine transfection reagent (Gibco BRL Life Technologies, Gaithersburg, Md.). The cells were treated with 1 o ng/ml TGF-β for 24 hours.
Apoptosis was examined in a TUNEL assay (Boehringer-Mannheim), according to the manufacturer's instructions.

[7] = tested on: cyclin A promoter construct (pCAL2) in M-NRP1 cells; test: Cyclin A promoter construct pCAL2-luc luciferase assay, M-NRP1 cells; format: cell-based, rat; conditions: 24 hours of exposure to 10 ng/ml TGF-β
Method: (§6) M-NRP1 and NRP-154 cells were cultured in 10% fetal bovine serum as described by Chaudhary et al., (1998) J. Biol. Chem. 273: 17708-17712) and exposed to 10 ng/ml TGF-β1 for 24 hours.
(§7) M-NRP1 cells were transiently transfected with pCal-luc (a pCAL2 reporter construct described by Keeton et al., (1991) J. Biol. Chem. 266: 23048-23052) using the Lipofectamine (Gibco BRL Life Technologies, Gaithersburg, Md.) transfection reagent.
(§8) Activity of the transiently transfected cyclin A promoter construct, pCal2-luc, was assessed by a luciferase assay and measured using a luminometer. The basal activity (e.g., without TGF-β treatment) of pCAL2 was similar in MNRP-1 and NRP-154 cells.

NRP-154 cells [8] = test: Thymidine incorporation assay, NRP-154 cells; format: cell-based, rat; conditions: 24 hr treatment with 10 ng/ml TGF-β1
Method: as §5

M-NRP1 cells [9] = test: TUNEL assay, M-NRP1 cells; format: cell-based, rat; conditions: 10 ng/ml TGF-β, 24 hours
Method: as §4

[10] = tested on: cyclin A promoter construct (pCAL2) in NRP-154 cells; test: Cyclin A promoter construct pCAL2-luc luciferase assay, NRP-154 cells; format: cell-based, rat; conditions: 24 hours of treatment with 10 ng/ml TGF-β
Method: as §6, §7, §8

Compound | apoptosis (NRP-154 cells [1]) | apoptosis (M-NRP1 cells [2]) | TUNEL staining of nuclei (NRP-154 cells [3]) | (3H)-thymidine uptake stimulated (M-NRP1 cells [4]) [%] | cell death (NRP-154 cells [5]) | caspase 3 activity [6] | apoptosis (TUNEL) (COS cells) | activity of the pCal-luc reporter [7] | (3H)-thymidine uptake inhibited (NRP-154 cells [8]) | TUNEL staining of nuclei (M-NRP1 cells [9]) | pCAL2 activity [10]
C=C1[C@@H](O)[C@@H]2O[C@]3(CC[C@H](/C=C/[C@@H](C)[C@@H]4CC(C)=C[C@@]5(O[C@H](C[C@@](C)(O)C(=O)O)CC[C@H]5O)O4)O3)CC[C@H]2O[C@@H]1[C@@H](O)C[C@H](C)[C@H]1O[C@@]2(CCCCO2)CC[C@H]1C [okadaic acid] | morphologically evident shrinkage, nuclear fragmentation, and loss of attachment characteristic of apoptosis | remain sensitive to apoptosis | – | – | – | – | – | – | – | – | –
CN[C@@H]1C[C@H]2O[C@@](C)([C@@H]1OC)n1c3ccccc3c3c4c(c5c6ccccc6n2c5c31)C(=O)NC4 [staurosporine] | morphologically evident shrinkage, nuclear fragmentation, and loss of attachment characteristic of apoptosis | remain sensitive to apoptosis | – | – | – | – | – | – | – | – | –
TGF-β: recombinant human TGF-β1 (R&D Systems), transforming growth factor-β | – | resistant to apoptosis | strong TUNEL staining of apoptotic nuclei | 14 | over 80% | caspase 3 was activated | did not undergo apoptosis | unaffected | greater than 80% | most nuclei from M-NRP1 cells remained intact | strong decrease
